Test results taken from paper PMC12040169 (PLOS Biology, 2025).

Test: in vitro
Conditions: human, hela cells

Structure (SMILES) | viability at 28.5 h, 10 µM [%]
O=C(Nc1ccc(Cl)cc1)c1cccc(-n2cnnn2)c1 [CBK287791] | 84.2

Same assay, conditions: human, hela cells, % viability

Structure (SMILES) | viability at 28.5 h, 10 µM [%]
CC(C)C[C@@H]1N[C@H](C(=O)NCC2CCOCC2)Cc2c[nH]c3cccc1c23 [CBK289427] | 103
COc1ccc2c(c1)nc(SCC(O)c1ccccc1)n2C (stereo not drawn) [CBK262508] | 97.6
COc1ccc(S(=O)(=O)N2CCC(C(=O)N(C)C(c3cnccn3)c3ccccc3C)CC2)cc1 (stereo not drawn) [CBK060210] | 99.3
CN(C(=O)c1c[nH]nc1C1CCCN(Cc2ccnc3ccccc23)C1)C1CCCCC1 (stereo not drawn) [CBK286491] | 99.3
Cc1ccccc1C(=O)N1C2CCC1CC(O)(Cn1ccnc1C)C2 (stereo not drawn) [CBK282740] | 90.1
O=C(O)c1ccc(S(=O)(=O)NCc2ccccc2)cc1 [CBK262093] | 102
Cc1nc(C2CCCN(C(=O)c3cnn(C)c3)C2)c2sccn12 (stereo not drawn) [CBK285236] | 81.4
Cn1cc(C(=O)Nc2ccccc2N2CCNCC2)c2ccccc21 [CBK034141T] | 92.2
O=C(c1nc2ncccn2n1)N1CCc2ccccc2C1 [CBK288079] | 88
COc1ccccc1CN(CC1CCNCC1)C(=O)Nc1c(C)noc1C [CBK049739] | 94.7
Cc1ccc(NC(=O)C(=O)NCCCn2ccnc2)cc1C [CBK264157] | 98
Nc1ccc(/C=C/c2cccc(C(=O)O)n2)cc1 [CBK267711] | 89.7
CCCSc1nc2cc(C(=O)OC)ccc2c(=O)n1CC1CCCO1 (stereo not drawn) [CBK306031] | 91
O=C(N[C@@H](Cc1ccc(OCc2ccc(Cl)cc2Cl)cc1)C(=O)O)C1CCCC1 [CBK017610] | 82.9
Oc1c(CN2CCOCC2)ccc(CN2CCOCC2)c1O [CBK269979] | 100
COc1ccc(NC(=O)c2c(C)[nH]c(=O)[nH]c2=S)cc1OC [CBK115517] | 90.4
c1ccc(C(CCN2CCC[C@@H]2CN2CCCC2)c2ccccc2)cc1 [CBK149109] | 89.7
CCC1CCCCN1C(=O)c1ccc(C)s1 (stereo not drawn) [CBK084526] | 96.6
Cc1ccc(C)c(NC(=O)N2CCC3(CCc4nccc(C)c4C3=O)CC2)c1 [CBK059554] | 91.6
c1ccc2c(-c3cn4ccnc4c(NC4CCOCC4)n3)cccc2c1 [CBK038047] | 89.9
Cc1ccc(CSCc2nc3ccccc3[nH]2)cc1 [CBK265238] | 90
O=[N+]([O-])c1ccc2c(c1)C(N1CCOCC1)/C(=C/C1(O)CCCCC1)O2 (stereo not drawn) [CBK263200] | 103

Structure (SMILES) | viability at 28.5 h, 10 µM [%]
C/C(=N\NC(=O)CSCc1ccccc1Br)c1cccc([N+](=O)[O-])c1 [CBK026344] | 95.9
COc1ccccc1OCc1ccccc1 [CBK002814] | 105
CC(C)Cn1ncc2cc(C(=O)Nc3ccnn3C(C)C)cnc21 [CBK304938] | 79
NC(=O)CN1CC(O)CC1=O (stereo not drawn) [CBK011649] | 86.1
Cc1nc(-c2cc3c(s2)CCN(CC(O)Cn2cccn2)C3)cs1 (stereo not drawn) [CBK304458] | 102
CC12CN(S(=O)(=O)c3ccccc3)CC(c3ccccc3)(CN(S(=O)(=O)c3ccccc3)C1)C2=O [CBK268101] | 97
O=C(Nc1cccc(-c2nnc3n2CCCCC3)c1)[C@@H]1CCCN1C(=O)c1cccs1 [CBK297090] | 109
C=Cn1cc(CN2CCCC(O)(c3ccc(F)cc3)CC2)c(C)n1 (stereo not drawn) [CBK285398] | 106
CN1C(=O)C2(N=C(N)NC(Nc3ccc(F)cc3)=N2)c2ccccc21 (stereo not drawn) [CBK270285] | 94.8
O=C(c1cn2cc(-c3cccs3)n(CC3CC3)c(=O)c2n1)N1CC(O)C1 [CBK306979] | 97.4
c1ccc2[nH]c(CCCCCc3nc4ccccc4[nH]3)nc2c1 [CBK267694] | 107
Cc1ccc(C(=O)N2CCC(O)(c3cccnc3F)CC2)o1 [CBK284358] | 94.4
O=C(Nc1ccc(N2CCOCC2)cc1)c1ccc(-n2cnnc2)cc1Cl [CBK269889] | 91
O=C1N=C(NC2C3CC4CC(C3)CC2C4)OC12CCCC2 (stereo not drawn) [CBK113576] | 94.2
O=C(Cn1cnc(-c2noc(-c3cccnc3)n2)c1)Nc1ccc(Cl)cc1 [CBK287822] | 96.2
c1cnn(CC2CCCCN2c2ncnc3sccc23)c1 (stereo not drawn) [CBK304969] | 92.1
Cc1nc(CN2CCN(C(=O)C3C4CCCCC43)CC2)cs1 (stereo not drawn) [CBK281607] | 93.8
O=c1[nH]c(=O)n([C@H]2C[C@H](O)[C@@H](CO)O2)cc1I [CBK200650] | 96.5
COc1cc(OC)c(OC)cc1CN1CCN(S(=O)(=O)c2ccc(C)cc2)CC1 [CBK263323] | 92.4
OCCN1CCC2(CC1)CN(CCO)c1ccccc12 [CBK126759] | 87.4
CCCCc1ccc(-c2cc3ncccc3nc2N)cc1 [CBK081198] | 96.3
CNc1nc(NCCc2cnc(=O)n(C)c2O)cc(C2CCOC2)n1 (stereo not drawn) [CBK307156] | 105

Structure (SMILES) | viability at 28.5 h, 10 µM [%]
CC(=O)Nc1cccc(-n2nnnc2SCC2CCCCO2)c1 (stereo not drawn) [CBK305746] | 91.5
CCCC/C=C/c1nccnc1NCc1ccncc1 [CBK037500] | 108
CCOC(=O)C1(C2CCCCC2)CCN(C(=O)c2cc(C)[nH]n2)CC1 [CBK137100] | 96.2
Cc1ccc(SCc2nc3ncccn3c2Br)cc1 [CBK027744] | 85.2
O=C1NC[C@]2(CC[C@@H](C(=O)NC3CC3)CC2)Oc2ccc(Cl)cc21 [CBK284889] | 94.2
CC(C)c1csc(NC(=O)C2CN(S(=O)(=O)c3ccc(F)cc3)C2)n1 [CBK285944] | 120
Cc1ccc(C(=O)Nc2ccccc2C(=O)O)cc1S(=O)(=O)NCc1ccccc1 [CBK263212] | 98.7
CCOc1ccc(-c2nnn(CC(N)=O)n2)cc1 [CBK068283] | 110
Cc1nnc(SCc2cc(=O)[nH]c(N3CCN(C)CC3)n2)s1 [CBK270106] | 91.7
Cc1nc(C2CCCC2)cc([C@H]2CN3CC[C@H]2C[C@@H]3CNC(=O)c2ccco2)n1 [CBK289120] | 109
CC(C)c1cc(C(=O)NC(C)(C)CN2CCCCC2C)n(C)n1 (stereo not drawn) [CBK282644] | 96.4
CC(C)CN1CCC(NC(=O)c2csc(-c3cnn(C)c3)n2)CC1 [CBK305790] | 97.2
CC1CCc2sc3ncnc(N4CCN(CCOC(c5ccccc5)c5ccccc5)CC4)c3c2C1 (stereo not drawn) [CBK264884] | 86.6
OC1CCN(c2ccc(-c3ccccc3)nn2)CC1 [CBK021753] | 83.9
CC(C)N1CCC(=NNC(=O)COc2ccc(Cl)cc2Cl)CC1 [CBK262614] | 83.2
CCn1cc(CN2C3CCC2CC(O)(c2ccc(F)cc2)C3)cn1 (stereo not drawn) [CBK282741] | 77.3
O=[N+]([O-])c1ccccc1CN1CCN(Cc2cccc(Oc3ccccc3)c2)CC1 [CBK264307] | 91.3
COc1ccc(S(=O)(=O)Nc2ccccc2C(=O)O)cc1OC [CBK042368] | 85.7
O=C(NCCCN1CCN(Cc2ccccc2)CC1)c1cn2cc(C(F)(F)F)cc(Cl)c2n1 [CBK074654] | 89.3
COc1ccc(C(=O)Nc2nc(OC)cnc2-c2ccsc2)cc1 [CBK145293] | 81.4
COCc1cccc(-c2ncc(OCCN3CCCC3=O)nc2N)c1 [CBK145110] | 93.6
COc1ccc(-c2nnc(SCCC(=O)O)n2C)cc1OC [CBK268902] | 98.8

Structure (SMILES) | viability at 28.5 h, 10 µM [%]
CC1CCN(C(=O)Cn2ncn3c(cc4ccsc43)c2=O)CC1 [CBK284190] | 101
O=C(Nc1ccc(S(=O)(=O)Nc2ncccn2)cc1)c1cc([N+](=O)[O-])ccc1Cl [CBK263717] | 89.9
CN1C(=O)c2ccccc2OCCCCC[C@H]2[C@@H]1CCCN2C(=O)c1ccccc1Cn1cncn1 [CBK292114] | 110
O=C(CCS(=O)(=O)c1ccccc1)Nc1ccc(N2CCNCC2)c2ccccc12 [CBK028408T] | 92.6
O=C(CNC(=O)OCc1ccncc1)NCC(CCCN1CCC(c2ccccc2)CC1)(c1ccccc1)c1ccccc1 [CBK024060A] | 112
CCc1ccc(OCC(=O)Nc2cccnc2)cc1 [CBK264658] | 96.6
O=C(NCCN1CCOCC1)c1cnn2c(-c3ccccc3)cc(-c3ccccc3)nc12 [CBK263062] | 94.5
O=C(NNC(=O)c1ccccc1C(=O)O)c1cccc(Cl)c1 [CBK261658] | 94.7
CC1(C(=O)NS(=O)(=O)c2cccc(-c3nnco3)c2)CC1 [CBK304683] | 106
COc1cc(-c2cncc(NCc3cccc(Cl)c3)n2)cc(OC)c1OC [CBK065284] | 115
COCCn1c(CO)nnc1[C@H]1C[C@H](NC(=O)c2ccc(F)cc2F)C1 [CBK306665] | 102
O=C(Nc1cncc(OC2CCNCC2)n1)c1cnccn1 [CBK036372T] | 93
CCOc1ccccc1NC(=O)CCCN1C(=O)c2ccccc2C1=O [CBK265608] | 107
Cc1ccnn1CCNC(=O)C(C)Cc1cccs1 (stereo not drawn) [CBK281633] | 109
Cc1ccc(CN2CCC(O)(Cn3ccc4ncccc43)CC2)o1 [CBK284751] | 97.7
C[C@H](Nc1cncc(-c2cccnc2)n1)c1ccccc1 [CBK065807] | 96.7
COc1ccc(C(=O)CSc2nnc(-c3ccccc3)c3ccccc23)cc1OC [CBK297088] | 93.3
O=C(O)/C=C\C(=O)Nc1ccc(Oc2ccccc2)cc1 [CBK261216] | 102
O=C(CCNC(Cc1ccccc1)C(=O)O)c1ccccc1 (stereo not drawn) [CBK286655] | 83
CN(Cc1c(F)cccc1Cl)C(=O)CSc1nc(CC(=O)O)cs1 [CBK296708] | 95.3
CN(C)Cc1c(O)ccc2occ(C(=O)c3ccccc3)c12 [CBK261965] | 94
NS(=O)(=O)c1ccc(CCNC(=O)c2ccccc2Oc2ccccc2)cc1 [CBK264394] | 89.4

Same assay, conditions: human, hela cells, % viability, bulk resorufin, single well

Structure (SMILES) | viability at 28.5 h, 10 µM [%]
N#CC1(c2ccccc2)CCN(C(=O)c2ccc3c(c2)no[n+]3[O-])CC1 [CBK091405] | 92.2
